Experimental findings from article PMC12040169 (PLOS Biology, 2025) are described below.

The first data set in a line: in vitro. The following applies: human, hela cells, % viability.
A word on the viability: it is a read-out of living cells in per cent, often relative to untreated cells. On to `CCc1nc2ccccc2c(NC(=O)CN2CCCCCC2)c1C` [CBK261580G], for which the viability at 28.5 h, 10 µM amounted to 90.3%.

In the case of `Cc1ccc(S(=O)(=O)N/N=C(/c2ccccc2)c2ccc(OCC(C)C)cc2)cc1` [CBK261056], the viability at 28.5 h, 10 µM is 87.8%.

For the compound `O=C(Nc1cccc(C(F)(F)F)c1)N[C@H]1[C@H](O)[C@@H](Oc2ccccc2)[C@@H]2OC[C@H]1O2` [CBK288811], the viability at 28.5 h, 10 µM was 106%.

Turning to `O=C(O)c1cccc(-n2ncc(-c3ccccc3C(F)(F)F)n2)c1` [CBK112721], the viability at 28.5 h, 10 µM turned out to be 98.1%.

As for `COc1ccc(C(C)C)cc1-c1cncc(N2CCN(c3ccccc3C#N)CC2)n1` [CBK037927], the viability at 28.5 h, 10 µM was found to be 98.8%.

Turning to `S=C(NCC1CCN(C(=S)Nc2cccc3ccccc23)CC1)Nc1cccc2ccccc12` [CBK016070], the viability at 28.5 h, 10 µM came out at 107%.

Take `O=[N+]([O-])c1cccc(-c2nc(-c3ccccc3)c(-c3ccc4oc5ccc(-c6[nH]c(-c7cccc([N+](=O)[O-])c7)nc6-c6ccccc6)cc5c4c3)[nH]2)c1` [CBK261433]: the viability at 28.5 h, 10 µM turned out to be 87.5%.

Take `Cc1nn(CC(=O)N2CCCCC2)c(=O)c2cc3ccsc3n12` [CBK284078]: the viability at 28.5 h, 10 µM was found to be 91%.

`O=c1[nH]c2ccc(S(=O)(=O)Nc3ccc(-c4ccccc4)cc3)cc2[nH]1` [CBK266999]: the viability at 28.5 h, 10 µM came out at 99.8%.

Turning to `COc1ccc2c(-c3ccccc3)cc(=O)n(CCS(=O)(=O)Oc3ccccc3)c2c1` [CBK296621], the viability at 28.5 h, 10 µM worked out at 84.6%.

In the case of `OC(CNCc1ccc2c(c1)OCO2)COc1ccc(Cl)c(Cl)c1` (stereo not drawn) [CBK074649], the viability at 28.5 h, 10 µM worked out at 89.3%.

On to `CCCNC(=O)CN1C(=O)N2CCCN=C2c2ccccc21` [CBK284405], for which the viability at 28.5 h, 10 µM came out at 86%.

Turning to `Cc1ccccc1CNC(=O)CN(c1cccc(C(F)(F)F)c1)S(=O)(=O)c1ccccc1` [CBK264047], the viability at 28.5 h, 10 µM stood at 102%.

Take `CCC(C)NS(=O)(=O)c1ccc(OCC(=O)O)cc1` (stereo not drawn) [CBK266521]: the viability at 28.5 h, 10 µM stood at 120%.

`CC(C(=O)N1CCOCC1)N(c1cc(Cl)ccc1Cl)S(C)(=O)=O` (stereo not drawn) [CBK270270]: the viability at 28.5 h, 10 µM was 88.8%.

For the compound `COc1ccc(-c2cc(C(=O)NCCc3cccc(C(F)(F)F)c3)cnc2-c2ccccc2)cn1` [CBK036662], the viability at 28.5 h, 10 µM came out at 99.9%.

As to `CCN(CC)c1ccc(C(=O)Cn2c(=O)n(C(=O)CCCc3ccc(OC)cc3)c3ccccc32)cc1` [CBK106503], the viability at 28.5 h, 10 µM is 89.6%.

As to `CC(C)Nc1nc2cc(Cl)c(Cl)cc2nc1SCCC(=O)O` [CBK107860], the viability at 28.5 h, 10 µM was determined as 96.1%.

With `COc1ccc(Nc2nc(N)nc(CSc3nnc(N)s3)n2)cc1` [CBK266682], the viability at 28.5 h, 10 µM was found to be 90.6%.

Take `CN1CCC(CN(C)CC2CCCN(Cc3ccccc3)C2)C1` (stereo not drawn) [CBK282946]: the viability at 28.5 h, 10 µM came out at 90.7%.

`COc1ccc(C(C)C)cc1-c1cn2ccnc2c(NC2CCOCC2)n1` [CBK066320]: the viability at 28.5 h, 10 µM was found to be 94%.

For `CCCOc1ccc(C(C)=O)cc1CC(C(N)=O)C(N)=O` [CBK263309], the viability at 28.5 h, 10 µM came to 90.6%.

In the case of `COCC(O)CN(C)c1nc(-c2ccncc2)nc2ccccc12` (stereo not drawn) [CBK305170], the viability at 28.5 h, 10 µM amounted to 78.7%.

For the compound `Cc1cc(Cl)c(S(=O)(=O)N2CCN(c3ccc(F)cc3)CC2)cc1OCC(N)=O` [CBK266439], the viability at 28.5 h, 10 µM amounted to 98.3%.

Take `CC1=NN(C(=O)c2c(Cl)c(C)nn2C)C(O)(C(F)(F)F)C1` (stereo not drawn) [CBK058892]: the viability at 28.5 h, 10 µM came out at 117%.

For `Cc1ccccc1CN(C)C(C)C(=O)Nc1ccc(S(N)(=O)=O)cc1` (stereo not drawn) [CBK304589], the viability at 28.5 h, 10 µM is 91.7%.

On to `CC(C(=O)Nc1ccc(S(N)(=O)=O)cc1)N1Cc2ccccc2C1=O` (stereo not drawn) [CBK307607], for which the viability at 28.5 h, 10 µM came to 82.8%.

As for `O=C1NC(=O)C(CC(=O)N2CCC3(CC2)CC(=O)c2cc(Cl)ccc2O3)N1` (stereo not drawn) [CBK156485], the viability at 28.5 h, 10 µM was 107%.

Regarding `Cc1ccc(C(=O)Nc2cccc3cccnc23)cc1Br` [CBK265189], the viability at 28.5 h, 10 µM was found to be 102%.

On to `Fc1ccc(-n2nnnc2SCc2ccc(Cl)cc2)cc1Cl` [CBK102075], for which the viability at 28.5 h, 10 µM stood at 97.5%.

As to `COc1cc(S(=O)(=O)N2CCCN(S(=O)(=O)c3cc(OC)c(Cl)cc3OC)CC2)c(OC)cc1Cl` [CBK266489], the viability at 28.5 h, 10 µM worked out at 99.4%.

For the compound `C=C(C)Cn1c(-c2ccc(N)cc2)nc2ccccc21` [CBK287581], the viability at 28.5 h, 10 µM turned out to be 89.2%.

For `Cc1oc(-c2ccccc2)cc1C(=O)NCc1ccc(OC2CCNCC2)cc1` [CBK038915T], the viability at 28.5 h, 10 µM amounted to 108%.

Regarding `c1ccc(CCCN2CCN(Cc3cccc4ccccc34)CC2)cc1` [CBK264237], the viability at 28.5 h, 10 µM was determined as 103%.

`COc1ccc(C)cc1C1(CNC(=O)C2CCC(N)C2)CCOCC1` (stereo not drawn) [CBK304312C]: the viability at 28.5 h, 10 µM turned out to be 107%.

`CCCN(CCC)CCc1cccc2c1CCN2C(=O)c1cc2ccccc2s1` [CBK017871C]: the viability at 28.5 h, 10 µM came to 93.2%.

`O=C(CN1CCN(Cc2ccccc2)CC1)Nc1ccccc1Oc1ccccc1` [CBK074782]: the viability at 28.5 h, 10 µM was determined as 90.2%.

Consider `CC(C)(C)NCC(O)CO/N=C(/c1ccncc1)c1ccc(Br)cc1` (stereo not drawn) [CBK023914G], for which the viability at 28.5 h, 10 µM stood at 95.7%.

As for `Nc1ncc(-c2ccccc2CO)nc1Nc1ccc2[nH]ccc2c1` [CBK063843], the viability at 28.5 h, 10 µM turned out to be 109%.

As for `CN1CCN(C(=O)c2c(NS(=O)(=O)/C=C/c3ccccc3)sc3c2CCCC3)CC1` [CBK050417], the viability at 28.5 h, 10 µM amounted to 94.3%.

For `Clc1ccc(OCCOc2cncc(N3CCCC3)n2)cc1` [CBK115668], the viability at 28.5 h, 10 µM was found to be 87.4%.

Consider `Oc1nc(O)c2c3c(n(CCn4ccnc4)c2n1)CCCC3` [CBK024380B], for which the viability at 28.5 h, 10 µM was 109%.

Regarding `OC(CN1CCC(Oc2cccc(F)c2)CC1)c1cccs1` (stereo not drawn) [CBK281453], the viability at 28.5 h, 10 µM turned out to be 88.8%.

In the case of `CC(OCc1ccccc1)C(=O)NCC1(N2CCOCC2)CCSC1` (stereo not drawn) [CBK305678], the viability at 28.5 h, 10 µM amounted to 114%.

Turning to `Cn1ccnc1C1(O)CC2CCC(C1)N2C(=O)c1cccs1` (stereo not drawn) [CBK284088], the viability at 28.5 h, 10 µM was found to be 94.2%.

With `O=C(Cn1ccnc1)NC(Cc1cccs1)c1nccs1` (stereo not drawn) [CBK285092], the viability at 28.5 h, 10 µM stood at 93.2%.

`CCOc1ccc(-c2n[nH]c(C(=O)N/N=C3/C(=O)Nc4ccccc43)c2C)cc1` [CBK262889]: the viability at 28.5 h, 10 µM came to 99.6%.

Take `CCC(O)Cn1nc(CCSC)nc1-c1cn(C)c(=O)[nH]c1=O` (stereo not drawn) [CBK306588]: the viability at 28.5 h, 10 µM came to 83.5%.

For `CN(C)c1ccc(Nc2ncnc3c2cnn3CCC#N)cn1` [CBK306231], the viability at 28.5 h, 10 µM is 103%.

Take `COc1cccc2c1cc(C(=O)NCc1cc(C3CC3)[nH]n1)n2C` [CBK283282]: the viability at 28.5 h, 10 µM is 80.4%.

Consider `Cc1c(F)cccc1CNCC1CCN(C(=O)OC(C)(C)C)CC1` [CBK056717], for which the viability at 28.5 h, 10 µM was 85.7%.

Take `O=C1CCCN1c1ccc(CN2CCC(O)(c3ccccc3)C2)cc1` (stereo not drawn) [CBK282808]: the viability at 28.5 h, 10 µM stood at 98.4%.

For the compound `CC(Oc1ccc(F)cc1)C(=O)Nc1ccc(S(N)(=O)=O)cc1` (stereo not drawn) [CBK265506], the viability at 28.5 h, 10 µM was 92.3%.

`Cc1cc(C)nc(N2CCC(CC(=O)NCCOc3cccc(F)c3)CC2)n1` [CBK285996]: the viability at 28.5 h, 10 µM stood at 112%.

`CCNC(=O)N1CC2(CCN(Cc3csc(C)n3)CC2)c2ccccc21` [CBK126712]: the viability at 28.5 h, 10 µM came out at 103%.

`Clc1ccc(-n2ccnc2)cc1` [CBK012658]: the viability at 28.5 h, 10 µM came out at 107%.

Take `Fc1ccc(CN2CCC(c3n[nH]c4ncccc34)CC2)cc1` [CBK284902]: the viability at 28.5 h, 10 µM was determined as 96.2%.

`CN(C)CCCNC(=O)C1CCN(c2cncc(-c3ccc(O)cc3)n2)CC1` [CBK126929T]: the viability at 28.5 h, 10 µM is 94.1%.

As for `c1cc(CCNc2nccn3ccnc23)ccn1` [CBK037976], the viability at 28.5 h, 10 µM worked out at 99.2%.

In the case of `CC(C)(C)OC(=O)N1CCCC(C(=O)NC(CO)Cc2ccccn2)C1` (stereo not drawn) [CBK305458], the viability at 28.5 h, 10 µM stood at 88.4%.

On to `COc1ccc(N2C(=O)CC(Nc3ccc(Cc4nc5ccccc5[nH]4)cc3)C2=O)cc1` (stereo not drawn) [CBK266480], for which the viability at 28.5 h, 10 µM amounted to 96.9%.

`COc1ccc(C2(NCc3c(C)nc4sccn34)CC2)cc1` [CBK282835]: the viability at 28.5 h, 10 µM is 95.2%.

Take `S=C(NCc1ccccc1)Nc1ccccc1` [CBK091617]: the viability at 28.5 h, 10 µM is 105%.

Consider `O=C(Nc1c(F)cccc1F)n1ccc2c(N3CCNCC3)cccc21` [CBK003745C], for which the viability at 28.5 h, 10 µM worked out at 89.5%.

For the compound `CN1CCOCC(CNC(=O)c2ccc(-c3ccccc3CO)cc2)C1` (stereo not drawn) [CBK307601], the viability at 28.5 h, 10 µM was 91.1%.

Regarding `Cc1nc2c(c(=O)[nH]1)CN(C1CCCCC1)CC2` [CBK282416], the viability at 28.5 h, 10 µM came to 82.2%.

On to `Cc1ccc(C(=O)NCCN2CCOCC2)c(N2CCN(C(=O)c3ccco3)CC2)n1` [CBK076312], for which the viability at 28.5 h, 10 µM was determined as 101%.

On to `FC(F)(F)c1ccnc(OCc2ccc(Cl)c(Cl)c2)c1` [CBK116623], for which the viability at 28.5 h, 10 µM was 89.2%.

On to `CC#Cc1cn([C@H]2C[C@@H](O)[C@@H](CO)O2)c(=O)[nH]c1=O` [CBK201182], for which the viability at 28.5 h, 10 µM is 104%.

For the compound `Cc1c(C(=O)N2CCN(C3CC3)CC2)nnn1Cc1ccc(F)cc1F` [CBK305507], the viability at 28.5 h, 10 µM was determined as 97.1%.

Consider `Cn1c(=O)c2c(nc(CN3CCOCC3)n2Cc2c(F)cccc2Cl)n(C)c1=O` [CBK269224], for which the viability at 28.5 h, 10 µM stood at 98.9%.

For `O=C(Nc1ncnc2c1[nH]c(=O)n2C1CC(O)C(CO)O1)c1ccccc1` (stereo not drawn) [CBK201250], the viability at 28.5 h, 10 µM was 94.6%.

On to `COc1c(C)cc(-c2nc(C)nc(C)c2C)cc1C` [CBK307506], for which the viability at 28.5 h, 10 µM stood at 96.7%.

For the compound `COc1ccc([C@@]23CCC(NC(=O)Nc4ccc5c(c4)Cc4ccccc4-5)C[C@@H]2N(C)CC3)cc1OC` (stereo partly drawn) [CBK047550T], the viability at 28.5 h, 10 µM came to 85.9%.

Take `CCC1CCCCN1C(=O)c1oc2ccccc2c1C` (stereo not drawn) [CBK078548]: the viability at 28.5 h, 10 µM is 107%.

For `CC(SCCc1ccccn1)C(=O)O` (stereo not drawn) [CBK026572], the viability at 28.5 h, 10 µM turned out to be 109%.

The same data set, now with this note: human, hela cells, % viability, bulk resorufin, single well.
Turning to `CCOC(=O)C1(c2ccccc2)CCN(C(=O)c2ccc3occc3c2)CC1` [CBK132187], the viability at 28.5 h, 10 µM is 92.2%.

`CC(C)(C)OC(=O)N1CCC2(CC1)OCc1cc(-c3cccc(OCC(=O)Nc4ccccc4)c3)ccc1O2` [CBK105255]: the viability at 28.5 h, 10 µM was determined as 99.6%.
